Row | melting point | SMILES
1 | 120 to 122 °C | COc1ccc2ncc(C3=NC(C)(C)C(C)(C)c4c(F)cccc43)cn12 [E 1]
2 | 130 to 134 °C | CC1(C)N=C(c2cnc3cccn3c2)c2cccc(F)c2C1(C)C [E 2, 5-fluoro-3,3,4,4-tetramethyl-1-pyrrolo[1,2-a]pyrimidin-3-yl-isoquinoline]
3 | 166 to 167 °C | CC1(C)N=C(c2cnc3ccc(Br)n3c2)c2cccc(F)c2C1(C)C [E 4]
4 | 159 to 160 °C | CC1(C)Cc2c(F)cccc2C(c2cnc3ccnn3c2)=N1 [E 9]
5 | 105 °C | CC1(C)Cc2c(Cl)cccc2C(c2cnc3ccnn3c2)=N1 [E 10]
6 | 180 to 190 °C | Cc1cc2ncc(C3=NC(C)(C)C(C)(C)c4c(F)cccc43)cn2n1 [E 12]
7 | 132 to 134 °C | Cc1nn2cc(C3=NC(C)(C)C(C)(C)c4c(F)cccc43)cnc2c1Br [E 13]
8 | 58 to 61 °C | CC1(C)N=C(c2cnc3c(Br)cnn3c2)c2cccc(F)c2C1(C)C [E 14]
9 | 126 to 128 °C | Cc1cnn2cc(C3=NC(C)(C)C(C)(C)c4c(F)cccc43)cnc12 [E 15]
10 | 179 to 182 °C | CC1(C)N=C(c2cnc3c(C#N)cnn3c2)c2cccc(F)c2C1(C)C [E 16]
11 | 121 to 123 °C | CC1(C)Cc2c(F)cccc2C(c2cnc3c(Br)cnn3c2)=N1 [E 17, 1-(3-bromopyrazolo[1,5-a]pyrimidin-6-yl)-5-fluoro-3,3-dimethyl-4H-isoquinoline]
12 | 201 to 203 °C | CC1(C)N=C(c2cnc3c(Br)cnn3c2)c2cccc(F)c2C1=O [E 19, 1-(3-bromopyrazolo[1,5-a]pyrimidin-6-yl)-5-fluoro-3,3-dimethyl-isoquinolin-4-one]
13 | 112 to 114 °C | CSc1nn2cc(C3=NC(C)(C)C(C)(C)c4c(F)cccc43)cnc2c1C#N [E 20]
14 | 164 to 166 °C | CC1(C)N=C(c2cnc3c(Br)cnn3c2)c2cccc(F)c2C1(F)F [E 21, 1-(3-bromopyrazolo[1,5-a]pyrimidin-6-yl)-4,4,5-trifluoro-3,3-dimethyl-isoquinoline]
15 | 135 to 138 °C | Cc1cnn2cc(C3=NC(C)(C)C(F)(F)c4c(F)cccc43)cnc12 [E 22]
16 | 176 to 178 °C | Cc1nn2cc(C3=NC(C)(C)C(C)(C)c4c(F)cccc43)cnc2c1C#N [E 23]
17 | 215 to 217 °C | CC1(C)N=C(c2cnc3c(C#N)cnn3c2)c2cccc(F)c2C1(F)F [E 24, 6-(4,4,5-trifluoro-3,3-dimethyl-1-isoquinolyl)pyrazolo[1,5-a]pyrimidine-3-carbonitrile]
18 | 136 to 139 °C | Cc1nn2cc(C3=NC(C)(C)C(C)(C)c4c(F)cccc43)cnc2c1C [E 25]
19 | 198 to 200 °C | CC1(C)N=C(c2cnc3c(F)cnn3c2)c2cccc(F)c2C1(C)C [E 26]
20 | 240 to 242 °C | CC1(C)N=C(c2cnc3nccn3c2)c2cccc(F)c2C1(C)C [E 27]
21 | 227 to 229 °C | CC1(C)Cc2c(F)cccc2C(c2cnc3nccn3c2)=N1 [E 28]
22 | 157 to 158 °C | Cc1cccc2c1CC(C)(C)N=C2c1cnc2nccn2c1 [E 30]
23 | 134 to 136 °C | CC1(C)N=C(c2cnc3nc(Br)cn3c2)c2cccc(F)c2C1(C)C [E 31]
24 | 141 to 143 °C | CC1(C)N=C(c2cnc3c(Br)cc(Br)n3c2)c2cccc(F)c2C1(C)C [E 39]

Reference: patent US9896454B2, “Microbiocidal heterobicyclic derivatives” (Syngenta Participations AG, priority 2014, dated 2018)
